Measurements published in patent US8106003B2, “Peptides and methods for the treatment of inflammatory disease” (Auckland Uniservices Limited, priority 2004, dated 2012).
Entries after “also recorded” stand apart in the source; their conditions may differ. Non-standard residues stand in square brackets, D forms with d. Residues, ends and D or L forms follow the SMILES beside them. No end group written: not given here. *: point of attachment. Biotin = O=C1N[C@H]2[C@H](CS[C@H]2CCCCC(=O)*)N1

Key:
[1] = test system: tyrosine phosphorylation of β7cyt; assay: In vitro kinase assay of GST-β7cyt fusion protein with H9 cell lysate; format: biochemical, human; conditions: genistein at 20 μM; H9 cell lysate 1:100
Experimental: Phosphorylation of recombinant GST fusion protein encoding β7cyt. H9 cells (5×10^7) were lysed at 4° C. in 1 ml of lysis buffer (10 mM Tris pH 7.4, 50 mM NaCl, 50 mM NaF, 1 mM sodium orthovanadate, 300 μg/ml PMSF, 20 μg/ml aprotinin, 10 μg/ml leupeptin, and 1% NP-40), centrifuged, and the supernatant precleared with GST-Sepharose. A GST fusion protein (50 μg) encoding the β7 subunit cytoplasmic domain bound to glutathione-Sepharose was incubated with trace amounts (1:100 dilution) of precleared lysate for 2 h at 4° C. The beads were washed thrice with lysis buffer and thrice with kinase buffer (10 mM Tris pH 7.4, 50 mM NaCl, 5 mM MgCl2, 5 mM MnCl2, 0.1 mM Na3VO4), and incubated in 30 μl kinase buffer containing 0.5 μCi [^32P] γATP for 20 min at 30° C. The sample was subjected to SDS-PAGE on a 10% acrylamide gel. The gel was stained with Coomassie Blue to visualize the GST fusion protein, and treated with 1 M KOH at 55° C. for 2 h to remove alkali-labile phosphate moieties on serine and threonine. The gel was dried, and subjected to autoradiography.

[2] = test system: α4β7-mediated adhesion of TK-1 cells to VCAM-1; assay: Cell adhesion assay: TK-1 cells to immobilised VCAM-1-Fc; format: cell-based, mouse; conditions: for inhibition of adhesion of CMFDA-labeled TK-1 cells to immobilized human VCAM-1-Fc: R9-fused L and D analogs of YDRREY, fluorescence readout; for inhibition of TK-1 cell adhesion to VCAM-1: Mn++ or PMA-activated cells preincubated with increasing concentrations of peptide
Experimental: (§1) Cell adhesion assays. Lab-Tek 16-well glass slides (Nunc) or flat-bottomed 96-well maxisorb plates (Nunc) were coated with purified mouse MAdCAM-1-Fc, human VCAM-1-Fc, and human ICAM-1-Fc (70 to 100 μl of 5 to 10 μg/ml), and incubated at 4° C. overnight. Slides were washed once with PBS, and blocked with FCS for 2 h at room temperature. Slides were washed with Hanks balanced salt solution (HBSS) containing 10 mM Hepes. Cells were either left unlabeled or labeled with the fluorescent dye chloromethyl fluorescein diacetate (CMFDA; Molecular Probes, Oregon), and activated by resuspension in HBSS containing 10 mM Hepes supplemented with 2 mM Ca^++ and 2 mM Mn^++. Cells were alternatively activated with 50 ng/ml PMA, or by incubating with AlF4^− (10 mM NaF and 40 µM AlCl3). They were preincubated with peptides at different concentrations for 10 min at room temperature, checked for viability by trypan blue exclusion, and then 10^6 cells added to each coated well and left to adhere for 30 min at room temperature. Non-adherent unlabeled cells in 16-well glass slides were removed by twice dipping slides gently into PBS, and adherent cells fixed in PBS containing 2% (v/v) glutaraldehyde for at least 3 h. The number of adherent cells was determined by counting the number of adherent cells in four independent fields at 100× magnification under an inverted microscope. Alternatively, non-adherent CMFDA-labeled cells in 96-well plates were removed by inverse centrifugation at 70×g for 5 min into 50 mM Tris pH 7.5, 150 mM NaCl, 2 mM MnCl2, followed by gentle washing with a pipette. The fluorescence of CMFDA-labeled adherent cells was measured using a VICTOR 1420 multilabel counter (Wallac). Unless otherwise stated, experiments were repeated in triplicate, using duplicate wells.

TK-1 T cells [3] = assay: Peptide internalization and visualization in TK-1 cells; format: cell-based, mouse; conditions: confocal microscopy; for uptake of penetratin-fused peptide into TK-1 cells: 50 μM peptide, 1 h, FITC-streptavidin
Experimental: Peptide internalization and visualization. […] After washing with PBS, cells were resuspended into PBS/1% FCS and cytocentrifuged onto glass slides. Cytospin smears were fixed with 4% paraformaldehyde in PBS for 15 min at room temperature, washed twice with PBS and permeabilized in PBS containing 0.2% Triton X-100 for 10 min. Biotinylated peptide was detected by incubating the slides with streptavidin-FITC (Sigma, Mo.), and visualized using a Leica TCS 4D confocal laser microscope. Images were processed using Leica Scanware™ 4.2 A software and Adobe Photoshop 5.0.

TK-1 T cells [4] = format: cell-based, mouse
[5] = test system: adhesion of H9 cells to MAdCAM-1; assay: Cell adhesion assay: H9 cells to MAdCAM-1-Fc; format: cell-based, human; conditions: Mn++ or PMA-activated H9 cells
Experimental: as §1

[6] = test system: adhesion of H9 cells to VCAM-1; assay: Cell adhesion assay: H9 cells to VCAM-1-Fc; format: cell-based, human; conditions: Mn++ or PMA-activated H9 cells
Experimental: as §1

[7] = test system: kinase(s) in TK-1 cell lysate; assay: Assay to test whether β7 cytoplasmic domain peptides bind a kinase(s); format: biochemical, mouse; conditions: lysates of unactivated or AlF4−-activated TK-1 cells
Experimental: Assay to test whether β7 cytoplasmic domain peptides bind a kinase(s). TK-1 cells (3×10^6) were lysed in 1 ml of lysis buffer, and centrifuged at 12,000×g for 10 min at 4° C. Supernatants were precleared with 10 μl of Sepharose and then 10 μl of streptavidin-Sepharose. Cytoplasmic domain peptides were screened for their ability to associate with a kinase in lysates of TK-1 cells that were either left unactivated or had been activated with AlF4^−. Biotinylated peptides immobilized on 5 μl of streptavidin-Sepharose were incubated with 1 ml of lysis buffer containing 1 μl of cell lysate for 2 h at 4° C. with gentle shaking. The beads were washed thrice with ice-cold lysis buffer, once with kinase buffer, and were incubated with 30 μl kinase buffer and 0.5 to 1 μCi γ-ATP for 20 min at 30° C. Beads were washed five times, and radioactivity measured in a scintillation counter.

[8] = test system: α4β7-mediated adhesion of TK-1 cells to MAdCAM-1; assay: Cell adhesion assay: TK-1 cells to immobilised MAdCAM-1-Fc; format: cell-based, mouse; conditions: for inhibition of TK-1 cell adhesion to MAdCAM-1: Mn++, PMA or AlF4−-activated cells preincubated with increasing concentrations of peptide
Experimental: as §1

[9] = test system: α4β7-mediated adhesion of TK-1 cells to RGD polymer; assay: Cell adhesion assay: TK-1 cells to fibronectin-like polymer (RGD); format: cell-based, mouse; conditions: for inhibition of TK-1 cell adhesion to RGD polymer: Mn++ or PMA-activated cells preincubated with increasing concentrations of peptide
[10] = test system: MAdCAM-1-induced clustering of α4β7 on TK-1 cells; assay: Confocal microscopy analysis of receptor clustering; format: cell-based, mouse; conditions: AlF4−-activated TK-1 cells, peptide 50 μM
Experimental: Confocal microscopy analysis of receptor clustering. TK-1 cells were incubated in the presence or absence of peptides (50 μM) for 1 h at room temperature, and cells were activated for 30 min at room temperature in HBSS containing 2 mM Ca++ and AlF4^−. Cells were incubated with MAdCAM-1-coated microspheres for 1 h on ice. They were washed with PBS containing 0.02% sodium azide, and fixed in 4% (w/v) paraformaldehyde in PBS for an additional 1 h. They were then stained with FITC-conjugated anti-β7 subunit M293 mAb, washed and fixed as above. Cells were mixed 1:1 with Citifluor glycerol/PBS solution, mounted on slides, and analyzed using a Leica TCS4D confocal laser scanning microscope equipped with an external argon-krypton laser (488 nm). Images were digitally recorded and printed on an Epson colour printer using Microsoft Power Point software.

[11] = test system: TK-1 cells adhered to MAdCAM-1 and VCAM-1; assay: Detachment of already adhered TK-1 cells (established focal adhesions); format: cell-based, mouse; conditions: Mn++ and PMA-activated cells, incubated 1 h with peptide after adhesion
Experimental: (§2) FIG. 5: Illustrates peptide β7-2 blocks ligand-induced clustering of α4β7 at the cell surface, but cannot disrupt established focal adhesions. (A) Peptide β7-2 blocks ligand-induced clustering of α4β7. TK-1 cells were preincubated with either the β7-2 or β7-3 peptides, or no peptide, and activated with AlF4^−. Ligand-induced clustering of α4β7 was induced by addition of MAdCAM-1-Fc, and cluster formation after 30 min was determined by staining cells with FITC-conjugated M293 mAb (anti-β7 subunit), followed by confocal microscopy. […] TK-1 (B, D) and H9 (C, E) cells activated with Mn^++, and PMA were adhered to glass slides coated with MAdCAM-1-Fc (B, C), and VCAM-1-Fc (D, E), and then incubated for 1 h with peptide β7-2. Cells bound were counted, and represent the mean±SD from four fields. Experiments were performed in triplicate.
(§3) Cell adhesion assays. Lab-Tek 16-well glass slides (Nunc) or flat-bottomed 96-well maxisorb plates (Nunc) were coated with purified mouse MAdCAM-1-Fc, human VCAM-1-Fc, and human ICAM-1-Fc (70 to 100 μl of 5 to 10 μg/ml), and incubated at 4° C. overnight. […] The number of adherent cells was determined by counting the number of adherent cells in four independent fields at 100× magnification under an inverted microscope. […] The fluorescence of CMFDA-labeled adherent cells was measured using a VICTOR 1420 multilabel counter (Wallac). […]

[12] = test system: H9 cells adhered to MAdCAM-1 and VCAM-1; assay: Detachment of already adhered H9 cells (established focal adhesions); format: cell-based, human; conditions: Mn++ and PMA-activated cells, incubated 1 h with peptide after adhesion
Experimental: as §2, §3

[13] = test system: adhesion of H9 cells to RGD polymer; assay: Cell adhesion assay: H9 cells to RGD polymer; format: cell-based, human; conditions: data not shown

Row | Molecule | inhibition of H9 cell adhesion to MAdCAM-1 [5] | inhibition of H9 cell adhesion to VCAM-1 [6] | uptake of penetratin-fused peptide into TK-1 cells (TK-1 T cells [3]) | formation of a phosphorylated complex (kinase association / phosphorylation of immobilized peptide) [7] | inhibition of TK-1 cell adhesion to MAdCAM-1 [8] | inhibition of TK-1 cell adhesion to VCAM-1 [2] | inhibition of TK-1 cell adhesion to RGD polymer [9] | also measured
1 | O=c1c(-c2ccc(O)cc2)coc2cc(O)cc(O)c12 [genistein] |  |  |  |  |  |  |  | blockade of phosphorylation of β7cyt [1]: completely blocked
2 | N=C(N)NCCC[C@@H](NC(=O)CCCC[C@@H]1SC[C@@H]2NC(=O)N[C@@H]21)C(=O)N[C@H](CCCNC(=N)N)C(=O)N[C@H](CCCNC(=N)N)C(=O)N[C@H](CCCNC(=N)N)C(=O)N[C@H](CCCNC(=N)N)C(=O)N[C@H](CCCNC(=N)N)C(=O)N[C@H](CCCNC(=N)N)C(=O)N[C@H](CCCNC(=N)N)C(=O)N[C@H](CCCNC(=N)N)C(=O)N[C@H](Cc1ccc(O)cc1)C(=O)N[C@H](CC(=O)O)C(=O)N[C@H](CCCNC(=N)N)C(=O)N[C@H](CCCNC(=N)N)C(=O)N[C@H](CCC(=O)O)C(=O)N[C@H](Cc1ccc(O)cc1)C(=O)O [β7-13] (Biotin-[dR][dR][dR][dR][dR][dR][dR][dR][dR][dY][dD][dR][dR][dE][dY]-OH; N-terminus and C-terminus assumed) |  |  |  |  |  |  |  | inhibition of adhesion of CMFDA-labeled TK-1 cells to immobilized human VCAM-1-Fc [2]: inhibit; inhibition of adhesion of CMFDA-labeled TK-1 cells to immobilized human VCAM-1-Fc ([2]; listed as D-amino acid form): as equally potent as the L-enantiomer; internalization of R9-fused peptide by TK-1 cells (TK-1 T cells [3]; 30 min incubation): internalized; cytotoxic concentration (TK-1 T cells [4]; 2 h): exceeding 50 μM; cell death (TK-1 T cells [4]; at 100 μM, data not shown): 50%
3 | QLNWKQDSNPLYKSAITTT [β7-4] | completely ineffective | completely ineffective | taken up | formed a phosphorylated complex |  |  |  | 
4 | RLSVEIYDRREY [β7-2] | blocked | blocked | taken up |  | abrogated | abrogated | abrogated | blockade of TK-1 cell-binding to MAdCAM-1 ([8]; 100 μm of peptide): almost completely blocked; blockade of TK-1 cell-binding to VCAM-1 ([2]; 100 μm of peptide): almost completely blocked; reduction in TK-1 cell binding to the RGD polymer ([9]; 100 μm of peptide): 50%; blockade of MAdCAM-1-induced clustering (redistribution) of α4β7 at the cell surface [10]: completely blocked; also recorded: blocks; detachment of TK-1 cells already adhered to MAdCAM-1 and VCAM-1 [11]: not able to detach; also recorded: cannot disrupt focal adhesions to detach cells; detachment of H9 cells already adhered to MAdCAM-1 and VCAM-1 [12]: not able to detach; also recorded: cannot disrupt focal adhesions to detach cells
5 | YDRREY [β7-8] (Biotin-RQIKIWFQNRRMKWKKYDRREY; not fully specified) | also blocked | also blocked | taken up | formed a phosphorylated complex | retained the ability to block | retained the ability to block | retained the ability to block | inhibition of H9 cell adhesion to RGD polymer [13]: also blocked
